# Measurements reported in patent publication EP0549006A2, “Ammonium and phosphonium salts and their use as biocides” (FMC CORPORATION (UK) LIMITED, priority 1991, dated 1993).
# Legend:
# Alcaligenes dentrificans = assay: Bacterial minimal inhibiting concentration (MIC) in liquid culture, turbidity evaluation; format: cell-based; conditions: strain D: Alcaligenes dentrificans; Caso Peptone Bouillon, 24 hours at 30 °C; tested at 10, 30, 60 and 100 mg/l
# Proteus vulgaris = assay: as above; format: cell-based; conditions: strain E: Proteus vulgaris; Caso Peptone Bouillon, 24 hours at 30 °C; tested at 10, 30, 60 and 100 mg/l
# Enterobacter aerogenes = assay: as above; format: cell-based; conditions: strain C: Enterobacter aerogenes, Caso Peptone Bouillon, 24 hours at 30 °C, tested at 10, 30, 60 and 100 mg/l
# [1] = Solubility of the isolated product (water, alcohol); format: physicochemical
# Serratia marcescens = assay: Bacterial minimal inhibiting concentration (MIC) in liquid culture, turbidity evaluation; format: cell-based; conditions: strain B: Serratia marcescens; Caso Peptone Bouillon, 24 hours at 30 °C; tested at 10, 30, 60 and 100 mg/l
# Bacillus subtilis = assay: as above; format: cell-based; conditions: strain A: Bacillus subtilis; Caso Peptone Bouillon, 24 hours at 30 °C; tested at 10, 30, 60 and 100 mg/l
# Pseudomonas fluorescens = assay: as above; format: cell-based; conditions: strain F: Pseudomonas fluorescens; Caso Peptone Bouillon, 24 hours at 30 °C; tested at 10, 30, 60 and 100 mg/l
# bacterial mixed culture = format: cell-based; conditions: 24 hours at 30 °C in Tyrode solution, growth on Caso Peptone plates; for Effect after 24 h 10: 10 mg/l; for Effect after 24 h 30: 30 mg/l; for Effect after 24 h 60: 60 mg/l
Molecule,MIC (Alcaligenes dentrificans) [µg/mL],MIC (Proteus vulgaris) [µg/mL],minimal inhibiting concentration C (Enterobacter aerogenes) [µg/mL],solubility in water [1],MIC (Serratia marcescens) [µg/mL],MIC (Bacillus subtilis) [µg/mL],MIC (Pseudomonas fluorescens) [µg/mL],Effect after 24 h 10 (bacterial mixed culture),Effect after 24 h 30 (bacterial mixed culture),Effect after 24 h 60 (bacterial mixed culture),minimal inhibiting concentration D (Alcaligenes dentrificans) [µg/mL],minimal inhibiting concentration E (Proteus vulgaris) [µg/mL],solubility in alcohol ([1]; alcohol),minimal inhibiting concentration B (Serratia marcescens) [µg/mL],minimal inhibiting concentration A (Bacillus subtilis) [µg/mL],minimal inhibiting concentration F (Pseudomonas fluorescens) [µg/mL],Effect after 24 h 100 mg/l (bacterial mixed culture),"MIC (Enterobacter aerogenes; Klebsiella aerogenes, 24 h) [µg/mL]",solubility ([1]; in water) [µg/mL]
"CCCCCCCCCCCCCC[P+](CCCC)(CCCC)CCCC [Example 2, [(n-C4H9)3P n-C14H29]^+HSO4-]",10,10,10,optionally miscible with water,30,10,30,-,-,-,,,,,,,,,
"CCCCCCCCCCCCCC[P+](CCCC)(CCCC)CCCC [Example 3, [(n-C4H9)3P n-C14H29]^+NO3^-]",,,10,difficultly soluble in water,,,,"(-) (1-10 colonies, bacteria killed for the most part)","(-) (1-10 colonies, bacteria killed for the most part)",-,10,10,readily soluble in alcohol,30,10,30,-,,
"CCCCCCCCCCCCCC[N+](C)(C)Cc1ccccc1 [Example 5, [(CH3)2N(CH2C6H5)n-C14H29]^+[S2P(O^iC3H7)2]^-]",< 100,< 100,,difficultly soluble in water,< 100,< 100,< 100,,"(-) (1-10 colonies, bacteria killed for the most part)",-,,,,,,,-,< 100,
"CCCCCCCCCCCCCC[P+](CCCC)(CCCC)CCCC [Example 6, ([n-C4H9)3P n-C14H29]^+[B(C6H5)4]^-]",,,,,,,,,,,,,,,,,,,≤ 20
"CCCCCCCCCCCCCC[P+](CCCC)(CCCC)CCCC [Example 7, [(n-C4H9)3P n-C14H29]^+[lO4]^-]",,,30,difficultly soluble in water,,,,"(-) (1-10 colonies, bacteria killed for the most part)",-,-,10,10,,30,10,30,-,,
[(CH3)2N(CH2C6H5) n-C14H29]3^+[Fe(CN)6]^3- [Example 4],,,<100,,,,,,,,<100,<100,,<100,<100,<100,,,
[(n-C4H9)3P n-C14H29]^+(ICIBr]^- [Example 9],,,30,,,,,-,-,-,10,10,,30,10,30,,,
"[(n-C4H9)3P n-C, 4H29]^+[ICI2]^- [Example 8]",,,30,,,,,-,-,-,10,10,,30,10,30,,,
[(n-C4H9)3P n-G14H29]^+SCN^- [Example 1],,,10,,,,,-,-,-,10,10,,30,10,30,-,,
